Active and inactive are the calls of the source.
Tests used:
Cytochrome P450 2D6 = Cytochrome P450 2D6 (Homo sapiens, UniProt P10635);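 also: CYP2D6 member of a cytochrome P450 panel assay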
Cytochrome P450 2C9 [1] = molecular target: T1, Cytochrome P450 2C9 (Homo sapiens, UniProt P11712)
Cytochrome P450 1A2 = molecular target: T2, Cytochrome P450 1A2 (Homo sapiens, UniProt P05177);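 also: PubChem cytochrome P450 panel assay, CYP1A2 panel member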
T2 sequence (P05177 whole entry): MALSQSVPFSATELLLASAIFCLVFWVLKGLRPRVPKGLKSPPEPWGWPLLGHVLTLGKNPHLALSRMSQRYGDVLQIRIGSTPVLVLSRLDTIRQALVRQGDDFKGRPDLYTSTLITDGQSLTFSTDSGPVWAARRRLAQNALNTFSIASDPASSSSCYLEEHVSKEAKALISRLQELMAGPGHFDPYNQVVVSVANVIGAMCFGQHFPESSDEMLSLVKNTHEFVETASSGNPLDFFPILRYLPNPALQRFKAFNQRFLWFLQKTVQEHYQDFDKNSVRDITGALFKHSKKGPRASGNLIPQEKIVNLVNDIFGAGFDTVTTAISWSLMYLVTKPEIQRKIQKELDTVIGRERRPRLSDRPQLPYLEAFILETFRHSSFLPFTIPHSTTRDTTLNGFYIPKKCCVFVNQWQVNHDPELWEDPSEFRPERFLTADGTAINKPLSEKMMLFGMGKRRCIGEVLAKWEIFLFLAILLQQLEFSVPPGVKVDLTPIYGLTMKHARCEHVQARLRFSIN

HEK293 [2] = assay: cells; type: functional, cell-based; conditions: Homo sapiens
[3] = molecular target: T3, Nuclear receptor subfamily 0 group B member 1 (Homo sapiens, UniProt P51843); assay: Luminescence-based cell-based high throughput dose response assay for inhibitors of the orphan nuclear receptor subfamily 0, group B, member 1 (DAX1; NR0B1). [Related pubchem assays (depositor defined):AID504766, AID504790]; type: functional
T3 sequence (P51843 whole entry): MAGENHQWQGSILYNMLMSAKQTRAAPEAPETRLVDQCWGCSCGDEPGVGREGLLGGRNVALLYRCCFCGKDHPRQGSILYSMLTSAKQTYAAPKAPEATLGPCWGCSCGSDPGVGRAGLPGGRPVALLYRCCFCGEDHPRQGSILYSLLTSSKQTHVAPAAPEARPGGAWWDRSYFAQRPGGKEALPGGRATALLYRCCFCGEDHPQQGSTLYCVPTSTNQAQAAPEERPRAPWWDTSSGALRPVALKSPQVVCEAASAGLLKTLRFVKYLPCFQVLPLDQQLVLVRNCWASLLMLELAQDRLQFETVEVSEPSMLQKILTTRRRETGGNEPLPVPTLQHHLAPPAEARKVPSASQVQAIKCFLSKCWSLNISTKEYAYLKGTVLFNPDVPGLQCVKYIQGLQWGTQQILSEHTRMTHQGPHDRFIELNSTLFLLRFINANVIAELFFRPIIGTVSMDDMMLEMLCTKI

A-375 [4] = assay: MITF: Counter assay: A375 proliferation Measured in Cell-Based System Using Plate Reader - 2084-03_Inhibitor_Dose_DryPowder_Activity. [Related pubchem assays (depositor defined):AID488944]; type: functional; conditions: Homo sapiens
A-375 [5] = assay: A375 melanoma cell viability reduction, dose response, counter-screen for MITF modulator project, cherry-pick samples, set 2 (AID 540335); type: functional, cell-based; conditions: Homo sapiens
[6] = molecular target: Beta-2 adrenergic receptor (Homo sapiens, UniProt P07550); assay: beta2AR agonists driving receptor internalization, dose response, cell-based, FAP fluorogen, flow cytometry, cherry pick 1 (AID 588763); type: functional
Cytochrome P450 2C19 = Cytochrome P450 2C19 (Homo sapiens, UniProt P33261); assay: Cytochrome panel assay with activity outcomes. Panel member name: p450-cyp2c19 Compounds with AC50 equal or less than 10 uM are considered active; type: functional
Chain of Cytochrome P450 2C19 (P33261 whole entry): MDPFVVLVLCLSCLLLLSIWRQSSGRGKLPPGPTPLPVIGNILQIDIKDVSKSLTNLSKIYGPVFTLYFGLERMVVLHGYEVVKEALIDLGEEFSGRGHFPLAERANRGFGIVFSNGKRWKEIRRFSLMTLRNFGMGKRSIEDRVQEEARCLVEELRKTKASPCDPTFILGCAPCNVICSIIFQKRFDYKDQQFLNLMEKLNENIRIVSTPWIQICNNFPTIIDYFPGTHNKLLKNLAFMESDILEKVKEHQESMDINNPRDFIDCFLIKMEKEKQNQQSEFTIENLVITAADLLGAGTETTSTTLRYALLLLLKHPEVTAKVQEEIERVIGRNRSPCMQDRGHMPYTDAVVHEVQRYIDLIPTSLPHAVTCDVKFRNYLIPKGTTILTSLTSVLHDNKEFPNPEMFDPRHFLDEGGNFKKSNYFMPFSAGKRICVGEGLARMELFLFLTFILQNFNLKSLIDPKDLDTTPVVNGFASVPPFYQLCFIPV

[7] = cytotoxicity toward NIH3T3 fibroblasts, dose response, counter-screen, cell-based, ATP luminescence, mouse fibroblasts (AID 2010); type: functional;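 also: cells exposed to compound for about 90 hours before reading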
[8] = inhibitors of intracellular T. cruzi replication, confirmation, NIH3T3 host cells, beta-gal luminescence (AID 2044); type: functional, cell-based;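 also: intracellular parasites grown in NIH/3T3 mouse fibroblasts as host cells; luminescent beta-galactosidase reporter signal from transgenic T. cruzi replicating inside host cells; inhibitors lower the luminescence signal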
[9] = molecular target: T4, Microphthalmia-associated transcription factor (Homo sapiens, UniProt O75030); assay: TRPM1 promoter luciferase signal decrease, dose response, MITF inhibitor project, cell-based, SK-MEL-5, cherry-picked, set 3 (AID 493073); type: functional
T4 sequence (O75030 whole entry): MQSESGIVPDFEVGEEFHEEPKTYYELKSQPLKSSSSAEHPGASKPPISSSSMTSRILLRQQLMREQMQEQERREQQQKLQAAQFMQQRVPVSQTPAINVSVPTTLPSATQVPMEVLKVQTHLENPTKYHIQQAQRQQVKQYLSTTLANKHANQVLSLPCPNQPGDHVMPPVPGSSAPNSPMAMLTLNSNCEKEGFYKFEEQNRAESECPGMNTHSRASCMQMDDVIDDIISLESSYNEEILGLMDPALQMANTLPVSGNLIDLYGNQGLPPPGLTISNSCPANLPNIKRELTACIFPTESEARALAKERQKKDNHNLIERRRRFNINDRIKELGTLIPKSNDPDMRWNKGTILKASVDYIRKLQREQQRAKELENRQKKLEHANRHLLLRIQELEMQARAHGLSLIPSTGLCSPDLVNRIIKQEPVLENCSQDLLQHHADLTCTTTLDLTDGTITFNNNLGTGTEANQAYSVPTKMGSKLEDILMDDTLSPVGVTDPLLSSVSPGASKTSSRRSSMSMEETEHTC

Beta-galactosidase [10] = molecular target: T5, Beta-galactosidase (Escherichia coli, UniProt Q8VNN2); assay: beta-galactosidase enzyme inhibitors and activators, dose response, artefact control for CCR6 antagonist project, biochemical, E. coli enzyme, set 3 (AID 504712); type: functional
SUMO E1/E2 = SUMO E1/E2 (Homo sapiens, UniProt P63279+Q9UBE0+Q9UBT2); assay: SAR analysis of SUMOylation using HTRF in an in-Vitro dose response assay. [Related pubchem assays (depositor defined):AID2006, AID2011, AID2018, AID2069, AID2658]; type: functional
[11] = molecular target: Glyceraldehyde-3-phosphate dehydrogenase (Homo sapiens, UniProt P04406)
[12] = cytotoxicity in MIN6 insulinoma cells, dose response, cytotoxicity control, cell-based, mouse insulinoma (AID 2122); type: functional;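 also: confirmatory high-throughput counterscreen run to flag cytotoxic compounds; mouse MIN-6 beta cells carrying an insulin promoter eGFP reporter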
[13] = insulin promoter down-regulators in MIN6 cells, imaging, high-content screening, mouse beta cells (AID 1628); type: functional
Beta-galactosidase [14] = molecular target: T5, Beta-galactosidase; type: functional
[15] = molecular target: T6, Kappa-type opioid receptor (Homo sapiens, UniProt P41145); type: functional
T6 sequence (P41145 whole entry): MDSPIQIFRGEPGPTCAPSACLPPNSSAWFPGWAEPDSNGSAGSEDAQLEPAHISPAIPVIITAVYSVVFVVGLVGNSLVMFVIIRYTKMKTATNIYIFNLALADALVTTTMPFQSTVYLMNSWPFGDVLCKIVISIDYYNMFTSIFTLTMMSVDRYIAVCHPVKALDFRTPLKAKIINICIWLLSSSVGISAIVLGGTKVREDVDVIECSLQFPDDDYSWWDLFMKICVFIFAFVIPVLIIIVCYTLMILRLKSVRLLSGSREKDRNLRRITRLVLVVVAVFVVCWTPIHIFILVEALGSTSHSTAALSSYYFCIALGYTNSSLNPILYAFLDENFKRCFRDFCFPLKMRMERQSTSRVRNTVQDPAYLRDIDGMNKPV

[16] = molecular target: T7, Delta-type opioid receptor (Homo sapiens, UniProt P41143); assay: HTS Image-Based Screen for Agonists of the DOR Receptor. [Related pubchem assays (depositor defined):AID1777, AID1786, AID2133]; type: functional
T7 sequence (P41143 whole entry): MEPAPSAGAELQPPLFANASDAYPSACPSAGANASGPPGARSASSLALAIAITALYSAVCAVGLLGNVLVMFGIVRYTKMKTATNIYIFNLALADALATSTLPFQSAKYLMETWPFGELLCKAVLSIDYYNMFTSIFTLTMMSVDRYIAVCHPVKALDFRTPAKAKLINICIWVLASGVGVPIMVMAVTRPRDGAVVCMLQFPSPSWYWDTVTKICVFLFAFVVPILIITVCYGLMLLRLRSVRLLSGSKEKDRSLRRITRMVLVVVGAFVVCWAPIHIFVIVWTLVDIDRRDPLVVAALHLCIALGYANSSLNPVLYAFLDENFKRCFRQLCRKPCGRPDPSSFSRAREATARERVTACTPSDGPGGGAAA

Mu-type opioid receptor = Mu-type opioid receptor (Homo sapiens, UniProt P35372); assay: HTS Image-Based Screen for Agonists of the MOR Receptor. [Related pubchem assays (depositor defined):AID1777, AID1785, AID1786, AID2133]; type: functional;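 also: imaging of beta-arrestin GFP recruitment into spots after receptor activation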
[17] = molecular target: T7, Delta-type opioid receptor; assay: HTS Image-Based Screen for Antagonists of the DOR Receptor. [Related pubchem assays (depositor defined):AID1777, AID1785, AID1786, AID2133]; type: functional
[18] = molecular target: T6, Kappa-type opioid receptor; type: functional; remark: listed apart in the source
Jurkat = assay: SAR Analysis of small molecule inhibitors of T-cell specific antigen receptor-induced NF-kB activation in a Jurkat cell line using a luminescence assay - Set 2. [Related pubchem assays (depositor defined):AID435003, AID435012, AID465]; type: functional, cell-based; conditions: Homo sapiens
HEK293 [19] = assay: cytotoxicity in HEK293T NF-kB-Luc cells, SAR follow-up, cytotoxicity control for NF-kB activator project, cell-based, resazurin fluorescence (AID 493251); type: functional; conditions: Homo sapiens
HEK293 [20] = assay: SAR Analysis of small molecule inhibitors of T-cell specific antigen receptor-induced NF-kB activation in a HEK-293T cell line using a luminescence assay - Set 2. [Related pubchem assays (depositor defined):AID435003, AID435012, AID489026]; type: functional, cell-based; conditions: Homo sapiens
[21] = cytotoxicity in HEK-293T cells, dose response, cytotoxicity control for BCR NF-kB inhibitor project, luminescence, B-cell screen hits (AID 489021); type: functional, cell-based;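 also: HEK-293T cells carrying an NF-kB luciferase reporter; cells exposed to compound for about 14 hours before viability readout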
Cytochrome P450 2C9 [22] = molecular target: T1, Cytochrome P450 2C9; remark: listed apart in the source
Nonstructural protein 1 = Nonstructural protein 1 (Influenza A virus, UniProt Q194T2); type: functional, Influenza A virus (A/California/07/2009(H1N1))
[23] = molecular target: Lysine-specific demethylase 4C (Homo sapiens, UniProt Q9H3R0); assay: GASC-1 (JMJD2C) histone demethylase inhibitors, dose response, biochemical, DELFIA europium, cherry-picked samples (AID 488835); type: functional
[24] = NIH-3T3 fibroblast cytotoxicity, dose response, cytotoxicity control, cell-based, fluorescence, Alamar Blue, secondary assay (AID 2327); type: functional;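 also: NIH-3T3 mouse fibroblasts cultured with fluconazole at 8 µg/mL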
Phosphomannomutase 2 = Phosphomannomutase 2 (Homo sapiens, UniProt O15305); assay: Counter screen SAR assay for PMM2 inhibitors via a fluorescence intensity assay. [Related pubchem assays (depositor defined):AID1545, AID1574]
[25] = molecular target: T8, Mannose-6-phosphate isomerase (Homo sapiens, UniProt P34949); assay: PMI enzyme inhibitors, confirmation, biochemical, fluorescence intensity (AID 1535)
T8 sequence (P34949 whole entry): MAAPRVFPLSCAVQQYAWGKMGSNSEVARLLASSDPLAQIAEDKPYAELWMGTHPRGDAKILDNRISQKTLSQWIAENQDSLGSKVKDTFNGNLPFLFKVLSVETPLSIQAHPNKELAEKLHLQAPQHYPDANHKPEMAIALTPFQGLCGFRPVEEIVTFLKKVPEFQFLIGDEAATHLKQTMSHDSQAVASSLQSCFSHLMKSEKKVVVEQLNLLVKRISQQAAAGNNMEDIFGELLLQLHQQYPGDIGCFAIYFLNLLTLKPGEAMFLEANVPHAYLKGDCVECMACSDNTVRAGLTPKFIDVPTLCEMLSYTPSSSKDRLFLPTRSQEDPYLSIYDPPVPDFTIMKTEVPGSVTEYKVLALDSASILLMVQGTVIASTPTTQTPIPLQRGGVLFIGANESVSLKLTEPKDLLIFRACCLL

[26] = molecular target: T9, Voltage-gated N-type calcium channel alpha-1B subunit/Amyloid beta A4 precursor protein-binding family A member 1 (Homo sapiens, UniProt Q00975+Q02410); assay: disruptors of Mint-PDZ/N-type channel peptide interaction – biochemical, HTRF, SAR follow-up (AID 2489); type: functional
T9 sequence (Q00975 whole entry): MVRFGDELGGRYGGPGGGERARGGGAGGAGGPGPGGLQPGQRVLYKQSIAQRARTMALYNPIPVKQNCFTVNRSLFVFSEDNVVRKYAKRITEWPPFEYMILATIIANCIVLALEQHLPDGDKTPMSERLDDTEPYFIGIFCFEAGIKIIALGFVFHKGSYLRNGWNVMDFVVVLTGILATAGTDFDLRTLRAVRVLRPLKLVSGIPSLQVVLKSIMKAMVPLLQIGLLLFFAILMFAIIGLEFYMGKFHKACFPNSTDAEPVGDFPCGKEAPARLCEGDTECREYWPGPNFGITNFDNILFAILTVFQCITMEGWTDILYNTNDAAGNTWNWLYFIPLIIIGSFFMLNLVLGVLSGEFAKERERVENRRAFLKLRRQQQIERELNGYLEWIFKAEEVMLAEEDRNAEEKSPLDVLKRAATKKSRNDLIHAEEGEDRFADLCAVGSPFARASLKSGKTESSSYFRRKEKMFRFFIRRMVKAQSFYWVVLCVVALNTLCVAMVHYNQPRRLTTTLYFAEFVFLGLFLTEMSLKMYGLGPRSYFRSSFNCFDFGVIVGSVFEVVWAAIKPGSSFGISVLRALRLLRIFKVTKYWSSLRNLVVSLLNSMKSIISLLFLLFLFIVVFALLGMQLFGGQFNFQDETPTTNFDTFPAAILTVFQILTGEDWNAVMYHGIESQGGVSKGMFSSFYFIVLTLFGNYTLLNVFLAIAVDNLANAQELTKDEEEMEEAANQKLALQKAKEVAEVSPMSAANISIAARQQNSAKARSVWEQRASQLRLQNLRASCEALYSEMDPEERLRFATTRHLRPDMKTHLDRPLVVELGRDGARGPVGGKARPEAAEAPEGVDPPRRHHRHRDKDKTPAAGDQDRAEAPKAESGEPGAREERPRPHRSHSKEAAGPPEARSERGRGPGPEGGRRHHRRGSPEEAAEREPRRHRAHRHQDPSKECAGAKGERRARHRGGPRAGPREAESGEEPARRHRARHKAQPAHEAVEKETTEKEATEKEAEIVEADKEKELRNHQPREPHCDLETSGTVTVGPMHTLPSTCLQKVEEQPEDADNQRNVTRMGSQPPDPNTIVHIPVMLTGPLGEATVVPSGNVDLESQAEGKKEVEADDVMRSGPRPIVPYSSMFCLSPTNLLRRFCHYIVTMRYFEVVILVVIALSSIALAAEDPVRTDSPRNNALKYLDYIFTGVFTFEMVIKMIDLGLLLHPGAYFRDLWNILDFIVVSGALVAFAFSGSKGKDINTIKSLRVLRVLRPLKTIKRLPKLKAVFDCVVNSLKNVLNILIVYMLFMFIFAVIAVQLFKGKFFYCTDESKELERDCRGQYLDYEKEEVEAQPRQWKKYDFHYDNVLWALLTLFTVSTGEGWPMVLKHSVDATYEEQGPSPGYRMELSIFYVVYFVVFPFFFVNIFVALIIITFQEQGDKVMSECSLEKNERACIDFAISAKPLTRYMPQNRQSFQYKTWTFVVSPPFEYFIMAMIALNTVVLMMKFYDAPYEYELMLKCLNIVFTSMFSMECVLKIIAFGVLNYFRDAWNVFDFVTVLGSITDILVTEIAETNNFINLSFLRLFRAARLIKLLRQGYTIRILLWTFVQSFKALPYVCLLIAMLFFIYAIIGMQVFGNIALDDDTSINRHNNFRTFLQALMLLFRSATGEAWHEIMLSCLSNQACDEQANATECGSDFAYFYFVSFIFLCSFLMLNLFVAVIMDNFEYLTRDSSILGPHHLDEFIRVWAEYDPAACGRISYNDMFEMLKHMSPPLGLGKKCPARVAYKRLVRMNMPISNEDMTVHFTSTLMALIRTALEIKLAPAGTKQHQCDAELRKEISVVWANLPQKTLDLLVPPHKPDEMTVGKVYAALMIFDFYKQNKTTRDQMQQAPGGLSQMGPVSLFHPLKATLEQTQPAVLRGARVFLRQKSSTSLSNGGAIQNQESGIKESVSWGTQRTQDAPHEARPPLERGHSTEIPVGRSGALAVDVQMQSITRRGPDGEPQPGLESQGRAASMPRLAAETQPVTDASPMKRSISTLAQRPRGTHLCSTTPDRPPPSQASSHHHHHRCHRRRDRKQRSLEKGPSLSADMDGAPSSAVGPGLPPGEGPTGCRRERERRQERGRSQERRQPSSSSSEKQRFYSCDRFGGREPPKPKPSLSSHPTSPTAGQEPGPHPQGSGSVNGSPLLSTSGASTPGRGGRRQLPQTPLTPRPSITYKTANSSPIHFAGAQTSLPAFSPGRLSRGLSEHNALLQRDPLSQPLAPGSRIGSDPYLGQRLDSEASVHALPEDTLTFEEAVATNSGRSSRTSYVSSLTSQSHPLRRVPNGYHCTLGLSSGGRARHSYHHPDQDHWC
T9 sequence (Q02410 whole entry): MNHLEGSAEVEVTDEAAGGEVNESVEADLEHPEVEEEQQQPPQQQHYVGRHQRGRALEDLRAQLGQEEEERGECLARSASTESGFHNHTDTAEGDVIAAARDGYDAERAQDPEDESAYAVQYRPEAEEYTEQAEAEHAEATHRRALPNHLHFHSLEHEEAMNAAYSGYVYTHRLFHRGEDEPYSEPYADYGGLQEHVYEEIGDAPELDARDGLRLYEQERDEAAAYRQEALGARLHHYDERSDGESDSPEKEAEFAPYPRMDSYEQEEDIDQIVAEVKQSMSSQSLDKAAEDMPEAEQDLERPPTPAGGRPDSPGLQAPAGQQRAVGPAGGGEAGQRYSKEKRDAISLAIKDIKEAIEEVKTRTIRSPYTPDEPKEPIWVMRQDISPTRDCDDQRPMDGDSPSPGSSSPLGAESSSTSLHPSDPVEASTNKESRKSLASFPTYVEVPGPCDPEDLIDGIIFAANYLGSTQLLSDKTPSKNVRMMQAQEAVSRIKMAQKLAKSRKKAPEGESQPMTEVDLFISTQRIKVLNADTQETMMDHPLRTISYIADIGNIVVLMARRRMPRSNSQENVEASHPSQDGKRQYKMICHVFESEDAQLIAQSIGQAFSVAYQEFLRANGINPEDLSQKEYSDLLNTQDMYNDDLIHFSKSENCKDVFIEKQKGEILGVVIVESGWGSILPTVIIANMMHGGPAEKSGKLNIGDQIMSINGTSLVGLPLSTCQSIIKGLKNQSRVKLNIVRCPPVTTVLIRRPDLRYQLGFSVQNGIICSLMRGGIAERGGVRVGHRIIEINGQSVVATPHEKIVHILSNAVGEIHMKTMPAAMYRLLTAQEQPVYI

[27] = molecular target: T9, Voltage-gated N-type calcium channel alpha-1B subunit/Amyloid beta A4 precursor protein-binding family A member 1; assay: disruptors of Mint-PDZ/N-type channel peptide interaction – biochemical, HTRF, set 2, SAR follow-up (AID 434980); type: functional

T1 sequence (P11712 whole entry): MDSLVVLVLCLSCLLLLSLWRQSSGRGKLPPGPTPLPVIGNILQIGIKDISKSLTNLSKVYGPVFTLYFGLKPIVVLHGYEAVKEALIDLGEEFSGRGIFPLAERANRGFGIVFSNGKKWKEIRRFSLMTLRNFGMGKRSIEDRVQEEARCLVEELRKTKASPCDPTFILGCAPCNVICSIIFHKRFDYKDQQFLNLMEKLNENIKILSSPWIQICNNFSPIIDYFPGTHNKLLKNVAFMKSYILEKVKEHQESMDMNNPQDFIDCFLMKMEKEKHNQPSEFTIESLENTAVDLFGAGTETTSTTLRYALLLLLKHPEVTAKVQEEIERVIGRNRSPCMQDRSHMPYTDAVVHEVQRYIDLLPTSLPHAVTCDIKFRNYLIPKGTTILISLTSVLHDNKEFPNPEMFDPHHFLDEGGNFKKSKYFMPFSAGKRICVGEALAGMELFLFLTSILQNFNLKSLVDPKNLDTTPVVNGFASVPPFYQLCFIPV

COC(=O)N1CCC[C@@]2(CCN(c3ccncc3)C2)C1
AC50 (Cytochrome P450 2D6): inconclusive
AC50 (Cytochrome P450 2C9 [1]): inconclusive
AC50 (Cytochrome P450 1A2): inconclusive

CN1C(C(=O)Nc2cccc(O)c2)=CC(c2ccco2)=NS1(=O)=O
IC50 (HEK293 [2]): > 67.6 µM (inactive)
IC50 [3]: > 67.6 µM (inactive)

O=C(Nc1ccc(-c2cn3c(n2)SCC3)cc1)c1ccco1
AC50 (A-375 [4]): > 35 µM (active)
AC50 (A-375 [5]): > 35 µM (active)

CCOc1ccc(CNC(=O)c2ccc(NC(=O)C3=CSCCO3)cc2)cc1
EC50 [6]: 0.0608 µM (active)

CS(=O)(=O)N1CCC2(CCN(c3cccc(-c4ccccc4)c3)CC2)CC1
AC50 (Cytochrome P450 2C9 [1]): inconclusive
AC50 (Cytochrome P450 1A2): inconclusive
AC50 (Cytochrome P450 2C19): inconclusive

CS(=O)(=O)c1ccc([S+]([O-])CC(=O)OCc2ccccc2)c([N+](=O)[O-])c1 (stereo not drawn)
EC50 [7]: 2.01 µM (active)
EC50 [8]: 3.05 µM (active)
AC50 [9]: 5.46 µM (active)
IC50 (Beta-galactosidase [10]): > 66.6 µM (inactive)
AC50 (A-375 [5]): 21 µM (active)

NS(=O)(=O)c1ccc2c(c1)C1C=CCC1C(c1ccc([N+](=O)[O-])cc1)N2 (stereo not drawn)
IC50 (SUMO E1/E2): > 100 µM (inactive)
IC50 [11]: > 100 µM (not active)

Cn1c2c(c(=O)[nH]c1=O)C(c1cccc(O)c1)C1=C(O)c3ccccc3C1=N2 (stereo not drawn)
IC50 [12]: 1.92 µM (active)
IC50 [13]: 1.87 µM (active)

CCN(CCCNC(=O)C1CCN(S(=O)(=O)N2CCC3(CC2)OCCO3)CC1)c1ccccc1
EC50 (Beta-galactosidase [14]): > 31.5 µM (inactive)
IC50 [15]: 9.46 µM (active)
EC50 [16]: > 32 µM (inactive)
EC50 (Mu-type opioid receptor): > 32 µM (inactive)
IC50 [17]: > 32 µM (inactive)
IC50 [18]: 9.69 µM

CC(=O)c1c(C)[nH]c(C(=O)Nc2ccc(Cl)c(S(=O)(=O)N(C)C)c2)c1C
IC50 (HEK293 [2]): > 67.5 µM (inactive)
IC50 [3]: > 67.5 µM (inactive)

CNC(=O)CCc1nc(-c2ccc(C(C)(C)C)cc2)no1
IC50 (Jurkat): > 79 µM (inactive)
IC50 (HEK293 [19]): > 80 µM (inactive)
IC50 (HEK293 [20]): 53.1 µM (inactive)
IC50 [21]: > 80 µM (inactive)
AC50 (Cytochrome P450 2C19; read-out: AC50): 39.8 µM (inconclusive)
AC50 (Cytochrome P450 2C9 [22]): 0.355 µM (inconclusive)

Cc1ccc(O)c(NN=C2C(=O)CC(C)(C)CC2=O)c1
IC50 (Nonstructural protein 1): 13.2 µM (active)
AC50 [23]: 10.5 µM (active)
EC50 [24]: > 160 µM (inactive)

O=[N+]([O-])c1ccc(/N=c2/ssnc2Cl)c([N+](=O)[O-])c1
IC50 (Phosphomannomutase 2): 58.4 µM (active)
IC50 [25]: 3.52 µM (active)

COc1ccccc1COC(=O)COC(=O)c1cc(-c2ccco2)nc2ccccc12
IC50 (SUMO E1/E2): 12.9 µM (active)
IC50 [26]: 9.09 µM (active)
IC50 [27]: 6.59 µM (active)

C=CCc1ccc(OCCOc2ccc(/C=N/n3cnnc3)cc2OCC)c(OC)c1
EC50 [6]: 0.587 µM (active)
